Where a name gives a salt, the structure may show the parent alone.
Legend:
full-length DNMT1 = full-length DNMT1 (Homo sapiens, UniProt P26358); test: radioactive scintillation proximity assay; assay type: biochemical
Dnmt1 = details: murine pre-implantation Dnmt3a/3b knockout embryos; ref Haggerty et al., 2021; cited from earlier work
[1] = system: mouse embryonic stem cells; details: ref Portilho et al., 2021; cited from earlier work
cancer cell = details: in vitro; ref Pappalardi et al., 2021; cited from earlier work
acute myeloid leukemia = details: mouse models of acute myeloid leukemia; ref Pappalardi et al., 2021; cited from earlier work
[2] = system: more than 300 protein kinases and 30 other methyltransferases (MTases), including DNMT3a and 3b; details: ref Pappalardi et al., 2021; cited from earlier work

Sequence of full-length DNMT1 (P26358 whole entry): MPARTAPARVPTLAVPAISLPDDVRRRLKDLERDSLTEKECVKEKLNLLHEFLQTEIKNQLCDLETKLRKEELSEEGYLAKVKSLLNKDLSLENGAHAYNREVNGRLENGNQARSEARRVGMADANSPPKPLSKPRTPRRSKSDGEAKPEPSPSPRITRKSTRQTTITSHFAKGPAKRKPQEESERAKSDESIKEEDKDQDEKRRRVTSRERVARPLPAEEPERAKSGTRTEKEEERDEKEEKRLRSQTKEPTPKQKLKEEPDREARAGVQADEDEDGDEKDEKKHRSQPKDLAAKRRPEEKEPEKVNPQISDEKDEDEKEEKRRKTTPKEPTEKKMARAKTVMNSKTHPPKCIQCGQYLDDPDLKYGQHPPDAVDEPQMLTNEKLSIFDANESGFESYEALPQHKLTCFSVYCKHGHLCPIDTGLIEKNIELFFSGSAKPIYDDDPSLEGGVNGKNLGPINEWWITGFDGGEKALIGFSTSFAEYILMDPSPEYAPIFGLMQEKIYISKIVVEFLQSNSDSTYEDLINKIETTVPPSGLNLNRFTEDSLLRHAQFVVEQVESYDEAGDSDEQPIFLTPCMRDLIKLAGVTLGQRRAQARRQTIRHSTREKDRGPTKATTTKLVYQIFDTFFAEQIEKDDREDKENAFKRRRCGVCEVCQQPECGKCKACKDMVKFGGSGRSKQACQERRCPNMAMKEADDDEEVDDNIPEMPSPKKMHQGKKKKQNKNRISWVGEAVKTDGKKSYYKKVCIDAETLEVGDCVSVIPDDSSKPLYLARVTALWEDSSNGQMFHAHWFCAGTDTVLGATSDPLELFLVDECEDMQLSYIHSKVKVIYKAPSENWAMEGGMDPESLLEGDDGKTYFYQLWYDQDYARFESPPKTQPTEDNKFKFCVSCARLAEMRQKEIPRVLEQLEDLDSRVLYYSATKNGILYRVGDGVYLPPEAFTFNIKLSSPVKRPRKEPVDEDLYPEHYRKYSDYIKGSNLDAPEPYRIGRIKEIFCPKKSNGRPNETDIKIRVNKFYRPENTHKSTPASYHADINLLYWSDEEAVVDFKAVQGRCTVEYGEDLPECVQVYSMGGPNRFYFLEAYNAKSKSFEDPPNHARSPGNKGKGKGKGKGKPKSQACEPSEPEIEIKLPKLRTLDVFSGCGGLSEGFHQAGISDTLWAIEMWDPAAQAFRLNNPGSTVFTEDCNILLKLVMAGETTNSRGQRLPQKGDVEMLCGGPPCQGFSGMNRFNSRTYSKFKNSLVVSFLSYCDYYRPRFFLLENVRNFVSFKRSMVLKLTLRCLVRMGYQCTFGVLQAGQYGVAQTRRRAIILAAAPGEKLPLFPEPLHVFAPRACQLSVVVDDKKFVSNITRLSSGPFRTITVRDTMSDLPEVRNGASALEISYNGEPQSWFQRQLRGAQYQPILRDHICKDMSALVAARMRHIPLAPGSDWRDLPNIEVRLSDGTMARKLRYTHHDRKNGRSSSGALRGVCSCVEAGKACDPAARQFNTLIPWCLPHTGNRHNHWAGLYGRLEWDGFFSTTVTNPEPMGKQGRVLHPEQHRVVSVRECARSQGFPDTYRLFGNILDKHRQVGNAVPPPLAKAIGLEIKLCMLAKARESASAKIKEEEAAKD

With CCc1c(C#N)c(SC(C(N)=O)c2ccccc2)nc(N2CCCN(CCO)CC2)c1C#N (stereo not shown) [GSK3543105, 2-((3,5-dicyano-4-ethyl-6-(4-(2-hydroxyethyl)-1,4-diazepan-1-yl)pyridin-2-yl)thio)-2-phenylacetamide] the IC50 (full-length DNMT1) was 0.03 to 0.06 µM.

For CCc1c(C#N)c(SCc2ccc(CNC(=O)CN)cc2)nc(N2CCCN(C)CC2)c1C#N [GSK3735967, 2-amino-N-(4-(((3,5-dicyano-4-ethyl-6-(4-methyl-1,4-diazepan-1-yl)pyridin-2-yl)thio)methyl)benzyl)acetamide], the IC50 (full-length DNMT1) was 0.03 to 0.06 µM.

For CCc1c(C#N)c(SC(C(N)=O)c2ccccc2)nc(N(C)C)c1C#N (stereo not shown) [GSK3484862], the “inhibition of Dnmt1” value (Dnmt1) is given as “inhibits Dnmt1”, the demethylation [1] is given as “demethylation in mouse embryonic stem cells, in a level similar to that observed with Dnmt1 knockouts” and the non-specific toxicity [1] is given as “minimal non-specific toxicity”.

In the case of CCc1c(C#N)c(N[C@@H](C(N)=O)c2ccccc2)nc(N2CCC(N)CC2)c1C#N [GSK3830334, (R)-2-((6-(4-aminopiperidin-1-yl)-3,5-dicyano-4-ethylpyridin-2-yl)amino)-2-phenylacetamide], the “reduced potency relative to the ~30-60 nM compounds” value (full-length DNMT1; full-length DNMT1, 40-mer hemimethylated DNA duplex, radioactive SPA) is reported as 3-6 fold.

In the case of CCc1c(C#N)c(SC(C(N)=O)c2ccccc2)nc(N2CCC(N)CC2)c1C#N (stereo not shown) [GSK3685032], the “inhibition of cancer cell growth” value (cancer cell) is given as “inhibits cancer cell growth”, the “tumor regression and survival compared with decitabine (Dacogen)” value (acute myeloid leukemia) is given as “superior to decitabine” and the “selectivity for DNMT1” value [2] is given as “selective for DNMT1 over more than 300 protein kinases and 30 other methyltransferases”.

For CCc1c(C#N)c(SC(C(N)=O)c2ccc(C(F)(F)F)cc2)nc(N2CCC(N)CC2)c1C#N (stereo not shown) [GSK3852279, 2-((6-(4-aminopiperidin-1-yl)-3,5-dicyano-4-ethylpyridin-2-yl)thio)-2-(4-(trifluoromethyl)phenyl)acetamide trifluoroacetate], the IC50 (full-length DNMT1) was 0.03 to 0.06 µM.

— publication PMC9177618 (Structure (London, England : 1993), 2022)
